Data on 19 compounds can be found in PubChem BioAssay AID248 (DTP/NCI, 2004).

Molecules are shown by their SMILES. Several values for one entry are separate records, joined by “and”; a condition that tells them apart may be missing. Equal values may be shown once. Toxic doses and inconclusive results are not listed.

This experiment relates to L1210 leukemia ip in BDF1 mice, survival T/C. As to the kind of experiment: NCI In Vivo Anticancer Drug Screen. Data for tumor model L1210 Leukemia (intraperitoneal) in B6D2F1 (BDF1) mice. To be noted: endpoint: mean survival time, higher = longer survival. The method, boiled down: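 In this screen, tumor-bearing mice given compound are compared to those given vehicle, and their survival values are reported as a treated-to-control quotient.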

[1] abbreviates: dose: 100.0 mg/kg/injection, schedule: Q04DX002 (ip), vehicle: saline with Tween-80.
Where [2] appears, read: dose: 200.0 mg/kg/injection, schedule: Q04DX002 (ip), vehicle: saline with Tween-80.
The mark [3] stands for this setting: dose: 400.0 mg/kg/injection, schedule: Q04DX002 (ip), vehicle: saline with Tween-80.
The mark [4] stands for this setting: dose: 100.0 mg/kg/injection, schedule: Q01DX001 (ip), vehicle: Klucel (hydroxypropylcellulose) (HPC).
[5] abbreviates: dose: 100.0 mg/kg/injection, schedule: Q01DX009 (ip), vehicle: Klucel (hydroxypropylcellulose) (HPC).
Where [6] appears, read: dose: 200.0 mg/kg/injection, schedule: Q01DX009 (ip), vehicle: Klucel (hydroxypropylcellulose) (HPC).
Setting [7] is: dose: 100.0 mg/kg/injection, schedule: Q01DX001 (ip), vehicle: saline.
Where [8] appears, read: dose: 200.0 mg/kg/injection, schedule: Q01DX001 (ip), vehicle: saline.
Setting [9] is: dose: 100.0 mg/kg/injection, schedule: Q04DX003 (ip), vehicle: saline.
The mark [10] stands for this setting: dose: 200.0 mg/kg/injection, schedule: Q04DX003 (ip), vehicle: saline.
[11] abbreviates: dose: 400.0 mg/kg/injection, schedule: Q04DX003 (ip), vehicle: saline.
Setting [12] is: dose: 100.0 mg/kg/injection, schedule: Q04DX003 (ip), vehicle: Klucel (hydroxypropylcellulose) (HPC).
Where [13] appears, read: dose: 200.0 mg/kg/injection, schedule: Q04DX003 (ip), vehicle: Klucel (hydroxypropylcellulose) (HPC).
Setting [14] is: dose: 400.0 mg/kg/injection, schedule: Q04DX003 (ip), vehicle: Klucel (hydroxypropylcellulose) (HPC).

For `NC(=S)N/N=C\c1nccc2ccsc12`, the T/C reads like this: under setting [1], 113 % of control; under setting [2], 92 % of control; under setting [3], 103 % of control.

Consider `O=C(CC1C=CCC1)NCc1ccccc1` (stereo not given), for which the T/C runs as follows: (dose: 75.0 mg/kg/injection, schedule: Q01DX001 (ip), vehicle: saline) 101 % of control; (dose: 150.0 mg/kg/injection, schedule: Q01DX001 (ip), vehicle: saline) 95 % of control; (dose: 300.0 mg/kg/injection, schedule: Q01DX001 (ip), vehicle: saline) 93 % of control.

As for `Cc1ccc(S(=O)(=O)NCc2cccc([N+](=O)[O-])c2)cc1`, the T/C was 102 % of control under setting [4]; 96 % of control (dose: 200.0 mg/kg/injection, schedule: Q01DX001 (ip), vehicle: Klucel (hydroxypropylcellulose) (HPC)); 96 % of control (dose: 400.0 mg/kg/injection, schedule: Q01DX001 (ip), vehicle: Klucel (hydroxypropylcellulose) (HPC)).

As to `COc1ccc(OC)c(NC(=O)c2cccc(F)c2)c1`, the T/C under setting [5] was 97 % of control; the T/C under setting [6] was 101 % of control; the T/C (dose: 400.0 mg/kg/injection, schedule: Q01DX009 (ip), vehicle: Klucel (hydroxypropylcellulose) (HPC)) was 100 % of control.

In the case of `Nc1ncnc2c1c(Br)cn2C1OC(CO)C(O)C1O` (stereo not given), the T/C (dose: 5.0 mg/kg/injection, schedule: Q01DX001 (ip), vehicle: carboxymethylcellulose (CMC)) is 106 % of control.

As to `NC(=NCCCC(NC(=O)OCc1ccccc1)C(=O)NC1C(CO)OC(n2cnc3c(N)ncnc32)C1O)N[N+](=O)[O-]` (stereo not given), the T/C runs as follows: (dose: 50.0 mg/kg/injection, schedule: Q01DX001 (ip), vehicle: saline) 90 % of control; under setting [7], 95 % of control; under setting [8], 93 % of control.

In the case of `COC(=O)C(N)CSC` (stereo not given), the T/C by setting is: (dose: 100.0 mg/kg/injection, schedule: Q01DX009 (ip), vehicle: saline) 101 % of control; under setting [9], 101 % of control; (dose: 200.0 mg/kg/injection, schedule: Q01DX009 (ip), vehicle: saline) 98 % of control; under setting [10], 97 % of control; (dose: 400.0 mg/kg/injection, schedule: Q01DX009 (ip), vehicle: saline) 95 % of control; under setting [11], 101 % of control.

Regarding `O=C1OC(/C=C/c2ccccc2)=NC/1=C\c1ccc2c(c1)OCO2`, the T/C runs as follows: under setting [1], 92 % of control; under setting [2], 89 % of control; under setting [3], 92 % of control.

As to `COc1cccc(/C=C2\CCNC2=O)c1OC`, the T/C runs as follows: (dose: 50.0 mg/kg/injection, schedule: Q01DX001 (ip), vehicle: carboxymethylcellulose (CMC)) 96 % of control; (dose: 100.0 mg/kg/injection, schedule: Q01DX001 (ip), vehicle: carboxymethylcellulose (CMC)) 102 % of control; (dose: 200.0 mg/kg/injection, schedule: Q01DX001 (ip), vehicle: carboxymethylcellulose (CMC)) 100 % of control; (dose: 400.0 mg/kg/injection, schedule: Q01DX001 (ip), vehicle: carboxymethylcellulose (CMC)) 96 % of control.

With `NNC(=O)NC(=O)NN`, the T/C was 103 % of control (dose: 9.61 mg/kg/injection, schedule: Q01DX Z (ip), vehicle: carboxymethylcellulose (CMC)); 90 % of control (dose: 19.23 mg/kg/injection, schedule: Q01DX Z (ip), vehicle: carboxymethylcellulose (CMC)); 95 % of control (dose: 38.45 mg/kg/injection, schedule: Q01DX Z (ip), vehicle: carboxymethylcellulose (CMC)); 116 % of control (dose: 76.9 mg/kg/injection, schedule: Q01DX Z (ip), vehicle: carboxymethylcellulose (CMC)); 103 % of control under setting [7]; 108 % of control under setting [8].

Take `CS(=O)(=O)OCCN(CCOS(C)(=O)=O)c1ccc(C=Nc2cccc(Br)c2)c(Cl)c1`: the T/C is, setting by setting: under setting [12], 111 % of control; under setting [13], 111 % of control; under setting [14], 120 % of control.

As to `CC(=O)OC1CC(n2cc(C)c(=O)[nH]c2=O)OC1COC(c1ccccc1)(c1ccccc1)c1ccccc1` (stereo not given), the T/C reads like this: (dose: 100.0 mg/kg/injection, schedule: Q01DX005 (ip), vehicle: saline) 109 % of control; (dose: 200.0 mg/kg/injection, schedule: Q01DX005 (ip), vehicle: saline) 98 % of control.

On to `CCCCC(CC)CO.[Ti]` (stereo not given), for which the T/C was 96 % of control (dose: 100.0 mg/kg/injection, schedule: Q04DX003 (ip), vehicle: saline with Tween-80) and 96 % of control (dose: 200.0 mg/kg/injection, schedule: Q04DX003 (ip), vehicle: saline with Tween-80).

Regarding `NC(=O)c1[nH]cnc1NN=NCCCl`, the T/C by setting is: (dose: 0.37 mg/kg/injection, schedule: Q01DX009 (ip), vehicle: saline with Tween-80) 165 % of control; (dose: 0.75 mg/kg/injection, schedule: Q01DX001 (ip), vehicle: saline with Tween-80) 106 % of control; (dose: 0.75 mg/kg/injection, schedule: Q01DX009 (ip), vehicle: saline with Tween-80) 119 % of control; (dose: 1.5 mg/kg/injection, schedule: Q01DX009 (ip), vehicle: saline with Tween-80) 122 % of control; (dose: 3.0 mg/kg/injection, schedule: Q01DX009 (ip), vehicle: saline with Tween-80) 173 % of control; (dose: 3.12 mg/kg/injection, schedule: Q01DX009 (ip), vehicle: saline with Tween-80) 172 % of control. Also, the T/C is 156 % of control and 189 % of control (dose: 4.0 mg/kg/injection, schedule: Q01DX009 (ip), vehicle: saline with Tween-80); 164 % of control and 240 % of control (dose: 6.0 mg/kg/injection, schedule: Q01DX009 (ip), vehicle: saline with Tween-80); 258 % of control (dose: 6.25 mg/kg/injection, schedule: Q01DX009 (ip), vehicle: saline with Tween-80); 191 % of control and 215 % of control (dose: 9.0 mg/kg/injection, schedule: Q01DX009 (ip), vehicle: saline with Tween-80); 247 % of control (dose: 12.5 mg/kg/injection, schedule: Q01DX001 (ip), vehicle: saline with Tween-80); 161 % of control (dose: 12.5 mg/kg/injection, schedule: Q01DX009 (ip), vehicle: saline with Tween-80). Moreover, the T/C reads like this: (dose: 17.0 mg/kg/injection, schedule: Q01DX001 (ip), vehicle: saline with Tween-80) 215 % of control and 229 % of control; (dose: 25.0 mg/kg/injection, schedule: Q01DX001 (ip), vehicle: saline with Tween-80) 207 % of control and 285 % of control and 313 % of control; (dose: 25.0 mg/kg/injection, schedule: Q01DX009 (ip), vehicle: saline with Tween-80) 91 % of control; (dose: 37.0 mg/kg/injection, schedule: Q01DX001 (ip), vehicle: saline with Tween-80) 171 % of control and 257 % of control; (dose: 50.0 mg/kg/injection, schedule: Q01DX001 (ip), vehicle: saline with Tween-80) 197 % of control.

For `OCC[S+](CCO)CCO`, the T/C runs as follows: under setting [9], 105 % of control; under setting [10], 102 % of control; under setting [11], 104 % of control.

Consider `CC1(C)N=C(c2ccccc2)C(c2ccccc2)=N1`, for which the T/C is, setting by setting: under setting [5], 105 % of control; under setting [12], 108 % of control; under setting [6], 98 % of control; under setting [13], 97 % of control; under setting [14], 115 % of control.

With `Nc1ccc(Cc2[nH]c(=O)[nH]c(=O)c2Br)cc1[N+](=O)[O-]`, the T/C is 103 % of control (dose: 25.0 mg/kg/injection, schedule: Q01DX001 (ip), vehicle: Klucel (hydroxypropylcellulose) (HPC)); 95 % of control (dose: 50.0 mg/kg/injection, schedule: Q01DX001 (ip), vehicle: Klucel (hydroxypropylcellulose) (HPC)); 93 % of control under setting [4].

For `CP1(=S)CCC(O)(c2ccccc2)CC1` (stereo not given), the T/C under setting [3] was 88 % of control.

On to `CCCCNc1c(C(=O)OCC)cnc2c1cnn2CC`, for which the T/C is 100 % of control (dose: 12.0 mg/kg/injection, schedule: Q01DX009 (ip), vehicle: Klucel (hydroxypropylcellulose) (HPC)); 96 % of control (dose: 25.0 mg/kg/injection, schedule: Q01DX009 (ip), vehicle: Klucel (hydroxypropylcellulose) (HPC)); 106 % of control (dose: 50.0 mg/kg/injection, schedule: Q01DX009 (ip), vehicle: Klucel (hydroxypropylcellulose) (HPC)); 96 % of control (dose: 75.0 mg/kg/injection, schedule: Q01DX009 (ip), vehicle: Klucel (hydroxypropylcellulose) (HPC)).
